The term ΔTm denotes the shift of the melting midpoint relative to a reference.

Structures are written as SMILES.

For assay [1], the system named is Tel26 (DNA, G4) AAAGGGTTAGGGTTAGGGTTAGGGAA
The experiment in a line: CD melting at 290 nm. To be noted: 20 mM KCl; 10 mM Tris, pH 7.5; 4 µM DNA, complex at 2:1 molar ratio.

Assay [2] deals with Tel22 (DNA, G4) AGGGTTAGGGTTAGGGTTAGGG
As to the kind of experiment: ITC. To be noted: 20 mM KCl; 10 mM Tris, pH 7.5, 37°C; one set of equivalent sites.

The test system of assay [3] is scT22 (DNA, single strand) GGATGTGAGTGTGAGTGTGAGG
The experiment in a line: CD titration. To be noted: 20 mM KCl; 10 mM Tris, pH 7.5, 25°C; 4 µM DNA; two bases per metal complex; per base.

Assay [4] deals with Tel22 (DNA, G4) AGGGTTAGGGTTAGGGTTAGGG
As to the kind of experiment: CD melting at 290 nm. To be noted: 20 mM KCl; 10 mM Tris, pH 7.5; 4 µM DNA, complex at 2:1 molar ratio.

In assay [5] the test system is Tel26 (DNA, G4) AAAGGGTTAGGGTTAGGGTTAGGGAA
As to the kind of experiment: ITC. The conditions noted are these: 20 mM KCl; 10 mM Tris, pH 7.5, 25°C; site 1 of 2; two sequential sites.

Assay [6] deals with wtTel26 (DNA, G4) TTAGGGTTAGGGTTAGGGTTAGGGTT
As to the kind of experiment: ITC. To be noted: 20 mM KCl; 10 mM Tris, pH 7.5, 25°C; one set of equivalent sites.

Assay [7] has the same test system. As to the kind of experiment: CD melting at 290 nm. To be noted: 20 mM KCl; 10 mM Tris, pH 7.5; 4 µM DNA, complex at 2:1 molar ratio.

Regarding `CN(C)CCNCc1ccnc2c1ccc1cccnc12.CN(C)CCNCc1ccnc2c1ccc1cccnc12.[Ni+2]`, the thermal shift (ΔTm) in assay [1] was determined as 13.8 °C; in assay [4], 10.4 °C; in assay [7], 15.2 °C. The Ka in assay [2] is 35.1 ± 0.6 × 10^5 M^-1; in assay [3], 270000 M⁻¹; in assay [5], 8.7 ± 3.3 × 10^5 M^-1; in assay [6] it was 4.7 ± 1.7 × 10^5 M^-1.

The values are drawn from article PMC3596309 (2013).
